Experimental data from patent US20200288710A1, “SUBSTITUTED SULPHONAMIDES FOR CONTROLLING ANIMAL PESTS” (BAYER CROPSCIENCE AKTIENGESELLSCHAFT, priority 2016, published 2020).

What was measured:
Type in all cases: in vivo
Phaedon cochleariae = Phaedon cochleariae spray test; conditions: foliar, 168 h, Chinese cabbage leaf discs, larvae, after 7 days, read-out: efficacy
Experimental: Phaedon cochleariae—Spray Test
To produce a suitable preparation of active compound, 1 part by weight of active compound is dissolved using the specified parts by weight of solvent and made up with water containing an emulsifier concentration of 1000 ppm until the desired concentration is attained. To produce further test concentrations, the formulation is diluted with emulsifier-containing water.
After 7 days, the efficacy in % is determined. 100% means that all the beetle larvae have been killed; 0% means that no beetle larvae have been killed.

Myzus persicae [1] = assay: Myzus persicae spray test (Chinese cabbage leaf discs); conditions: foliar, 120 h, 500 g/ha, after 5-6 days, read-out: efficacy
Summary of the method: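 Chinese cabbage leaf discs infested with all stages of green peach aphid were sprayed with compound formulated in acetone/DMF and emulsifier-containing water. Efficacy in % was scored after 5-6 days, with 100% meaning all aphids killed and 0% none killed.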

Myzus persicae [2] = assay: Myzus persicae oral test; conditions: 120 h, 20 ppm, oral uptake, after 5 days, read-out: efficacy
Summary of the method: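 Compound dissolved in acetone, diluted in water, then mixed 50:150 μl with IPL41 insect medium (33%+15% sugar). Mixed-population green peach aphids feed through a parafilm seal on the solution; mortality scored as % efficacy after 5 days (100% = all killed).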

Meloidogyne incognita = Meloidogyne incognita test; conditions: 336 h, lettuce, after 14 days, read-out: nematicidal efficacy (formation of galls)
Summary of the method: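 Active compound in acetone, diluted with water, added to sand-filled vessels with M. incognita eggs/larvae and lettuce seeds. After 14 days, efficacy scored by root gall formation: 100% = no galls, 0% = galls equal to untreated control.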

`Cn1cc(C(=O)NS(=O)(=O)c2c(Cl)cccc2Br)nc1-c1c(F)cccc1F` [Example 430] gave a pest or weed control at 500 g/ha (Phaedon cochleariae) of 100%, a pest or weed control at 500 g/ha (Myzus persicae [1]) of 100% and a pest or weed control at 20 ppm (Myzus persicae [2]) of 100%.
Work on `Cn1cc(C(=O)NS(=O)(=O)c2ccccc2Cl)nc1-c1c(F)cc(F)cc1F` [Example 2] yielded a pest or weed control at 20 ppm (Meloidogyne incognita) of 90%, a pest or weed control at 500 g/ha (Phaedon cochleariae) of 100% and a pest or weed control at 500 g/ha (Myzus persicae [1]) of 90%.
`Cc1cccc(OC(F)(F)F)c1S(=O)(=O)NC(=O)c1cn(C)c(-c2c(F)cccc2F)n1` [Example 405] showed a pest or weed control at 20 ppm (Meloidogyne incognita) of 90%, a pest or weed control at 500 g/ha (Phaedon cochleariae) of 100% and a pest or weed control at 20 ppm (Myzus persicae [2]) of 100%.
`CCOc1ccc(Cl)c(S(=O)(=O)NC(=O)c2cn(C)c(-c3c(F)cccc3F)n2)c1` [Example 387] gave a pest or weed control at 500 g/ha (Phaedon cochleariae) of 100%, a pest or weed control at 500 g/ha (Myzus persicae [1]) of 100% and a pest or weed control at 20 ppm (Myzus persicae [2]) of 100%.
In the case of `COc1ccc(Cl)c(S(=O)(=O)NC(=O)c2nc(-c3ccccc3Cl)n(C)c2Cl)c1` [Example 577], the pest or weed control at 20 ppm (Meloidogyne incognita) is reported as 100% and the pest or weed control at 500 g/ha (Phaedon cochleariae) is reported as 100%.
In the case of `CCc1ccc(Cl)cc1S(=O)(=O)NC(=O)c1cn(C)c(-c2cccc(Cl)c2Cl)n1` [Example 461], the pest or weed control at 500 g/ha (Phaedon cochleariae) is reported as 100%, the pest or weed control at 500 g/ha (Myzus persicae [1]) is reported as 100% and the pest or weed control at 20 ppm (Myzus persicae [2]) is reported as 100%.
Work on `Cn1cc(C(=O)NS(=O)(=O)c2ccc(Cl)c(Cl)c2)nc1-c1ccccc1Cl` [Example 165] yielded a pest or weed control at 500 g/ha (Phaedon cochleariae) of 100%, a pest or weed control at 500 g/ha (Myzus persicae [1]) of 90% and a pest or weed control at 20 ppm (Myzus persicae [2]) of 90%.
`Cc1cccc(Cl)c1S(=O)(=O)NC(=O)c1cc(C)n(-c2ncccc2Br)n1` [Example 304] gave a pest or weed control at 500 g/ha (Phaedon cochleariae) of 100%, a pest or weed control at 500 g/ha (Myzus persicae [1]) of 100% and a pest or weed control at 20 ppm (Myzus persicae [2]) of 100%.
`COc1ccc(Cl)c(S(=O)(=O)NC(=O)c2nc(-c3c(F)cccc3F)n(C)c2C)c1` [Example 334] was tested, and the pest or weed control at 20 ppm (Meloidogyne incognita) was 90% and the pest or weed control at 500 g/ha (Phaedon cochleariae) was 100%.
`Cc1ccccc1S(=O)(=O)NC(=O)c1cn(C)c(-c2ncccc2Cl)n1` [Example 540] showed a pest or weed control at 500 g/ha (Phaedon cochleariae) of 100%, a pest or weed control at 500 g/ha (Myzus persicae [1]) of 100% and a pest or weed control at 20 ppm (Myzus persicae [2]) of 100%.
`Cc1ccc(F)cc1S(=O)(=O)NC(=O)c1cc(C)n(-c2ncccc2Br)n1` [Example 303] showed a pest or weed control at 500 g/ha (Phaedon cochleariae) of 83%, a pest or weed control at 500 g/ha (Myzus persicae [1]) of 100% and a pest or weed control at 20 ppm (Myzus persicae [2]) of 100%.
`Cn1cc(C(=O)NS(=O)(=O)c2c(Cl)cccc2Br)nc1-c1cccc(Cl)c1Cl` [Example 466] showed a pest or weed control at 500 g/ha (Phaedon cochleariae) of 100%, a pest or weed control at 500 g/ha (Myzus persicae [1]) of 90% and a pest or weed control at 20 ppm (Myzus persicae [2]) of 100%.
For `Cc1ccccc1S(=O)(=O)NC(=O)c1cn(C)c(-c2nccc3ccccc23)n1` [Example 465], the pest or weed control at 500 g/ha (Phaedon cochleariae) was 100%, the pest or weed control at 500 g/ha (Myzus persicae [1]) was 100% and the pest or weed control at 20 ppm (Myzus persicae [2]) was 100%.
In the case of `Cn1cc(C(=O)NS(=O)(=O)c2cccc(Cl)c2)nc1-c1c(Cl)cccc1Cl` [Example 42], the pest or weed control at 20 ppm (Meloidogyne incognita) is reported as 100%, the pest or weed control at 500 g/ha (Phaedon cochleariae) is reported as 100% and the pest or weed control at 500 g/ha (Myzus persicae [1]) is reported as 100%.
Work on `Cc1ccccc1S(=O)(=O)NC(=O)c1nc(-c2ccccc2Cl)n(C)c1Cl` [Example 205] yielded a pest or weed control at 20 ppm (Meloidogyne incognita) of 100%, a pest or weed control at 500 g/ha (Phaedon cochleariae) of 100% and a pest or weed control at 20 ppm (Myzus persicae [2]) of 100%.
`CCCc1cccc(C(F)(F)F)c1S(=O)(=O)NC(=O)c1cn(C)c(-c2c(F)cccc2F)n1` [Example 370] showed a pest or weed control at 500 g/ha (Phaedon cochleariae) of 100%, a pest or weed control at 500 g/ha (Myzus persicae [1]) of 90% and a pest or weed control at 20 ppm (Myzus persicae [2]) of 100%.
Work on `COc1ccc(Cl)c(S(=O)(=O)NC(=O)c2nc(-c3c(F)cccc3F)c(C)n2C)c1` [Example 307] yielded a pest or weed control at 20 ppm (Meloidogyne incognita) of 100% and a pest or weed control at 500 g/ha (Phaedon cochleariae) of 100%.
`CCc1ccc(CC)c(S(=O)(=O)NC(=O)c2cn(C)c(-c3c(F)cccc3F)n2)c1` [Example 340] was tested, and the pest or weed control at 20 ppm (Meloidogyne incognita) was 90% and the pest or weed control at 500 g/ha (Phaedon cochleariae) was 100%.
`Cc1ccccc1S(=O)(=O)NC(=O)c1nc(-c2c(F)cccc2F)c(C)n1C` [Example 311] was tested, and the pest or weed control at 20 ppm (Meloidogyne incognita) was 100%, the pest or weed control at 500 g/ha (Phaedon cochleariae) was 83% and the pest or weed control at 20 ppm (Myzus persicae [2]) was 100%.
`Cc1cccc(C(C)C)c1S(=O)(=O)NC(=O)c1cn(C)c(-c2c(F)cccc2F)n1` [Example 361] gave a pest or weed control at 20 ppm (Meloidogyne incognita) of 90% and a pest or weed control at 500 g/ha (Phaedon cochleariae) of 100%.
Compound `COc1cc(S(=O)(=O)NC(=O)c2cn(C)c(-c3ccccc3Cl)n2)c(C)cc1Br` [Example 286] has a pest or weed control at 20 ppm (Meloidogyne incognita) of 100%, a pest or weed control at 500 g/ha (Phaedon cochleariae) of 100% and a pest or weed control at 20 ppm (Myzus persicae [2]) of 100%.
`Cc1ccc(S(=O)(=O)NC(=O)c2cn(C)c(-c3ccccc3Cl)n2)cc1` [Example 164] gave a pest or weed control at 20 ppm (Meloidogyne incognita) of 90%, a pest or weed control at 500 g/ha (Phaedon cochleariae) of 100% and a pest or weed control at 500 g/ha (Myzus persicae [1]) of 100%.
`COc1cc(S(=O)(=O)NC(=O)c2cc(C)n(-c3ncccc3Br)n2)c(C)cc1Br` [Example 300] was tested, and the pest or weed control at 500 g/ha (Phaedon cochleariae) was 100%, the pest or weed control at 500 g/ha (Myzus persicae [1]) was 90% and the pest or weed control at 20 ppm (Myzus persicae [2]) was 100%.
